ChEMBL document CHEMBL1136842, “5-Nitrofuran-2-yl derivatives: synthesis and inhibitory activities against growing and dormant mycobacterium species” (Bioorg Med Chem Lett, 2009)
Converted amounts (≈) assume the structure as drawn.

Tests used:
Mycobacterium kansasii = assay: Antimycobacterial activity against Mycobacterium kansasii MTCC 3058 by agar dilution method; type: functional
[1] = test system: Mycolicibacterium smegmatis; assay: Antimycobacterial activity against log-phase culture of Mycobacterium smegmatis ATCC 14468 by agar dilution method; type: functional
[2] = test system: Mycolicibacterium smegmatis; assay: Antimycobacterial activity against Mycobacterium smegmatis ATCC 14468 by agar dilution method; type: functional
Mycolicibacterium phlei = assay: Antimycobacterial activity against Mycobacterium phlei MTCC 1724 by agar dilution method; type: functional
[3] = test system: Mycolicibacterium fortuitum; assay: Antimycobacterial activity against Mycobacterium fortuitum MTCC 951 by agar dilution method; type: functional
[4] = test system: Mycobacterium tuberculosis; assay: Antimycobacterial activity against Mycobacterium tuberculosis H37Rv by agar dilution method; type: functional
Vero = assay: Cytotoxicity against african green monkey Vero cells after 72 hrs by MTT assay; type: cell-based; conditions: Chlorocebus sabaeus
Mycolicibacterium vaccae = assay: Antimycobacterial activity against Mycobacterium vaccae MTCC 997 by agar dilution method; type: functional
[5] = test system: Mycolicibacterium smegmatis; assay: Antimycobacterial activity against 6-week-starved culture of Mycobacterium smegmatis ATCC 14468 by agar dilution method; type: functional
[6] = test system: Mycobacterium tuberculosis; assay: Antimycobacterial activity against 6-week-starved culture of Mycobacterium tuberculosis H37Rv by agar dilution method; type: functional
[7] = test system: Mycobacterium tuberculosis; assay: Antimycobacterial activity against log-phase culture of Mycobacterium tuberculosis H37Rv by agar dilution method; type: functional

## Cc1cc(C)nc(NC(=S)N/N=C/c2ccc([N+](=O)[O-])o2)c1
Mycobacterium kansasii
  MIC: 39.1 µM (≈ 12.5 µg/mL)
[1]
  MIC: 4.8 µM (≈ 1.53 µg/mL)
[2]
  MIC: 4.8 µM (≈ 1.53 µg/mL)
Mycolicibacterium phlei
  MIC: 39.1 µM (≈ 12.5 µg/mL)
[3]
  MIC: 39.1 µM (≈ 12.5 µg/mL)
[4]
  MIC: 2.4 µM (≈ 0.766 µg/mL)
Vero
  IC50: < 196 µM
Mycolicibacterium vaccae
  MIC: 39.1 µM (≈ 12.5 µg/mL)
[5]
  MIC: 91.2 µM (≈ 29.1 µg/mL)

## Cc1ccc(C)c(NC(=S)N/N=C/c2ccc([N+](=O)[O-])o2)c1
Mycobacterium kansasii
  MIC: 78.5 µM (≈ 25 µg/mL)
[6]
  MIC: 154 µM (≈ 49 µg/mL)
[2]
  MIC: 157 µM (≈ 50 µg/mL)
Mycolicibacterium phlei
  MIC: 4.8 µM (≈ 1.53 µg/mL)
[3]
  MIC: 78.5 µM (≈ 25 µg/mL)
[7]
  MIC: 1.1 µM (≈ 0.35 µg/mL)
[4]
  MIC: 1.2 µM (≈ 0.382 µg/mL)
Vero
  IC50: > 196 µM
Mycolicibacterium vaccae
  MIC: 2.4 µM (≈ 0.764 µg/mL)

## O=[N+]([O-])c1ccc(/C=N/NC(=S)Nc2ccccn2)o1
Mycobacterium kansasii
  MIC: 12.1 µM (≈ 3.52 µg/mL)
[2]
  MIC: 48.4 µM (≈ 14.1 µg/mL)
Mycolicibacterium phlei
  MIC: 6 µM (≈ 1.75 µg/mL)
[3]
  MIC: 48.4 µM (≈ 14.1 µg/mL)
[4]
  MIC: 12.1 µM (≈ 3.52 µg/mL)
Vero
  IC50: 214 µM
Mycolicibacterium vaccae
  MIC: 24.2 µM (≈ 7.05 µg/mL)

## O=[N+]([O-])c1ccc(/C=N/NC(=S)Nc2ccc(Cl)cn2)o1
Mycobacterium kansasii
  MIC: 4.8 µM (≈ 1.56 µg/mL)
[6]
  MIC: 38.3 µM (≈ 12.5 µg/mL)
[1]
  MIC: 2.4 µM (≈ 0.782 µg/mL)
[2]
  MIC: 2.4 µM (≈ 0.782 µg/mL)
Mycolicibacterium phlei
  MIC: 38.3 µM (≈ 12.5 µg/mL)
[3]
  MIC: 38.3 µM (≈ 12.5 µg/mL)
[7]
  MIC: 1.2 µM (≈ 0.391 µg/mL)
[4]
  MIC: 1.2 µM (≈ 0.391 µg/mL)
Vero
  IC50: 192 µM
Mycolicibacterium vaccae
  MIC: 4.8 µM (≈ 1.56 µg/mL)
[5]
  MIC: 43.2 µM (≈ 14.1 µg/mL)

## COc1ccc(NC(=S)N/N=C/c2ccc([N+](=O)[O-])o2)c(OC)c1
Mycobacterium kansasii
  MIC: 35.6 µM (≈ 12.5 µg/mL)
[2]
  MIC: 35.6 µM (≈ 12.5 µg/mL)
Mycolicibacterium phlei
  MIC: 4.4 µM (≈ 1.54 µg/mL)
[3]
  MIC: 35.6 µM (≈ 12.5 µg/mL)
[4]
  MIC: 4.4 µM (≈ 1.54 µg/mL)
Vero
  IC50: > 178 µM
Mycolicibacterium vaccae
  MIC: 71.1 µM (≈ 24.9 µg/mL)

## COc1ccc(NC(=S)N/N=C/c2ccc([N+](=O)[O-])o2)cc1
Mycobacterium kansasii
  MIC: 39 µM (≈ 12.5 µg/mL)
[2]
  MIC: 39 µM (≈ 12.5 µg/mL)
Mycolicibacterium phlei
  MIC: 4.85 µM (≈ 1.55 µg/mL)
[3]
  MIC: 39 µM (≈ 12.5 µg/mL)
[4]
  MIC: 9.7 µM (≈ 3.11 µg/mL)
Vero
  IC50: > 195 µM
Mycolicibacterium vaccae
  MIC: 78 µM (≈ 25 µg/mL)

## NS(=O)(=O)c1ccc(NC(=S)N/N=C/c2ccc([N+](=O)[O-])o2)cc1
Mycobacterium kansasii
  MIC: 33.8 µM (≈ 12.5 µg/mL)
[1]
  MIC: 8.4 µM (≈ 3.1 µg/mL)
[2]
  MIC: 8.4 µM (≈ 3.1 µg/mL)
Mycolicibacterium phlei
  MIC: 16.8 µM (≈ 6.21 µg/mL)
[3]
  MIC: 33.8 µM (≈ 12.5 µg/mL)
[4]
  MIC: 2.1 µM (≈ 0.776 µg/mL)
Vero
  IC50: < 169 µM
Mycolicibacterium vaccae
  MIC: 2.1 µM (≈ 0.776 µg/mL)
[5]
  MIC: 75.6 µM (≈ 27.9 µg/mL)

## O=C(O)c1cn(C2CC2)c2cc(N3CCNCC3)c(F)cc2c1=O [CIPROFLOXACIN]
Mycobacterium kansasii
  MIC: 9.45 µM (≈ 3.13 µg/mL)
[2]
  MIC: 2.35 µM (≈ 0.779 µg/mL)
Vero
  IC50: > 188 µM

## NNC(=O)c1ccncc1 [ISONIAZID]
Mycobacterium kansasii
  MIC: 182 µM (≈ 25 µg/mL)
[6]
  MIC: 729 µM (≈ 100 µg/mL)
[1]
  MIC: 45.6 µM (≈ 6.25 µg/mL)
[2]
  MIC: 45.6 µM (≈ 6.25 µg/mL)
Mycolicibacterium phlei
  MIC: 91.2 µM (≈ 12.5 µg/mL)
[3]
  MIC: 22.8 µM (≈ 3.13 µg/mL)
[7]
  MIC: 0.66 µM (≈ 0.0905 µg/mL)
[4]
  MIC: 0.66 µM (≈ 0.0905 µg/mL)
Vero
  IC50: > 456 µM
Mycolicibacterium vaccae
  MIC: 182 µM (≈ 25 µg/mL)
[5]
  MIC: > 729 µM

## CO[C@H]1/C=C/O[C@@]2(C)Oc3c(C)c(O)c4c(O)c(c(/C=N/N5CCN(C)CC5)c(O)c4c3C2=O)NC(=O)/C(C)=C\C=C\[C@H](C)[C@H](O)[C@@H](C)[C@@H](O)[C@@H](C)[C@H](OC(C)=O)[C@@H]1C [RIFAMPIN]
Mycobacterium kansasii
  MIC: 7.59 µM (≈ 6.25 µg/mL)
[6]
  MIC: 15.2 µM (≈ 12.5 µg/mL)
[1]
  MIC: 1.89 µM (≈ 1.56 µg/mL)
[2]
  MIC: 1.89 µM (≈ 1.56 µg/mL)
Mycolicibacterium phlei
  MIC: 30.4 µM (≈ 25 µg/mL)
[3]
  MIC: 1.89 µM (≈ 1.56 µg/mL)
[7]
  MIC: 0.23 µM (≈ 0.189 µg/mL)
[4]
  MIC: 0.23 µM (≈ 0.189 µg/mL)
Vero
  IC50: > 75.9 µM
Mycolicibacterium vaccae
  MIC: 3.8 µM (≈ 3.13 µg/mL)
[5]
  MIC: 22.6 µM (≈ 18.6 µg/mL)
